Data taken from US8546352B2, “Pharmacological preparation for topical use containing N-palmitoyl-vanillamide” (Epitech Group S.r.l., priority 2010, dated 2013).
One block for each compound: values may come before it.

Assays:
[1] = test system: eye-wiping movements in mice; details: mouse
[2] = test system: capsaicin-induced eye-wiping movements in mice; assay: Eye-wiping assay in mice, effect on capsaicin-induced wiping; assay type: in vivo, mouse; details: for Capsaicin-induced wiping movements after Palvanil: same eye
[3] = biological target: T1, recombinant human TRPV1 (HEK-293 cells) (Homo sapiens, UniProt Q8NER1); assay: TRPV1-mediated elevation of intracellular [Ca2+] (agonist activity); assay type: cell-based
T1 construct: expressed in transfected cells

[4] = biological target: T1, recombinant human TRPV1 (HEK-293 cells); assay: Desensitization of capsaicin (10 nM)-induced TRPV1-mediated elevation of intracellular [Ca2+]; assay type: cell-based
[5] = biological target: T1, recombinant human TRPV1 (HEK-293 cells); assay: Desensitization of anandamide/low pH-induced TRPV1-mediated elevation of intracellular [Ca2+]; assay type: cell-based; details: for IC50: read-out: IC50, desensitization of anandamide effect

T1 sequence (Q8NER1 whole entry): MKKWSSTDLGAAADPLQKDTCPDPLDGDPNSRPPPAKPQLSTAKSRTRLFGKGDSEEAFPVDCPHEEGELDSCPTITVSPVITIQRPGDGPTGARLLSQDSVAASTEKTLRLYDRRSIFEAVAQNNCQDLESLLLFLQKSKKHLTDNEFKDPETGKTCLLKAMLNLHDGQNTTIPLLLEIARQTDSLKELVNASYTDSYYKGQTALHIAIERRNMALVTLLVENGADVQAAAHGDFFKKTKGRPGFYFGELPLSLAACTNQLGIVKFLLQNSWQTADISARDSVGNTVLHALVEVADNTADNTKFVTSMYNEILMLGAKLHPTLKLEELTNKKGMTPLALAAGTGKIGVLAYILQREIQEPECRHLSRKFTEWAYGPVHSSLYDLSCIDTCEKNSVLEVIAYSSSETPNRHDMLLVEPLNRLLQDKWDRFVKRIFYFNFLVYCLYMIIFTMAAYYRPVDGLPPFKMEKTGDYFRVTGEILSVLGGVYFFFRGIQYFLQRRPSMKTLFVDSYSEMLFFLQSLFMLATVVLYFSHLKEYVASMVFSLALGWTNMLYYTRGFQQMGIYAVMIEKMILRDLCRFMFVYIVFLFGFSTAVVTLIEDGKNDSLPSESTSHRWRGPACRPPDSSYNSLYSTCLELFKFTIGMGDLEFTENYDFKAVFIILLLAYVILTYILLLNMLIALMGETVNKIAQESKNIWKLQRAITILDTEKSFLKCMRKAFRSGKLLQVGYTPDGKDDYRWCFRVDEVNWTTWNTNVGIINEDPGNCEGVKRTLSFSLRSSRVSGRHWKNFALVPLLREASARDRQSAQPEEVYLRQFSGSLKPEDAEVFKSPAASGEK

SMILES: C=C(C)[C@]12C[C@@H](C)[C@@]34O[C@](Cc5ccccc5)(O[C@@H]1[C@@H]3C=C(COC(=O)Cc1cc(I)c(O)c(OC)c1)C[C@]1(O)C(=O)C(C)=C[C@@H]41)O2 [I-RTX, 5′-iodo-resiniferatoxin, reference compound]
- Eye-wiping reflexes per se ([1]; in vivo): did not cause any reflexes per se
- Effect of I-RTX pre-treatment on Palvanil's reduction of capsaicin-induced wiping ([2]; mouse, in vivo): completely reverted

SMILES: COc1cc(CNC(=O)CCCC/C=C/C(C)C)ccc1O [capsaicin, reference compound]
- Speed of TRPV1 activation (time to achieve 90% of total TRPV1 mediated calcium influx) ([3]; different concentrations, greatest difference at 1 μM, capsaicin vs Palvanil): always significantly faster
- Wiping movements monitored within 30 seconds ([1]; capsaicin solution 10 μg/ml into the eye): 12±0.9 wiping movements
- Desensitizing effect at different pre-incubation times, compared with Palvanil ([4]; 10 nM capsaicin pre-incubation, 10 nM capsaicin stimulation): significantly less pronounced desensitizing effect

- EC50 ([3]; HEK-293-TRPV1 cells, Fluo-4, read-out: EC50, increase in intracellular calcium): 0.65 ± 0.04 nM
SMILES: CCCCCCCCCCCCCCCC(=O)NCc1ccc(O)c(OC)c1 [Palvanil, N-(4-hydroxy-3-methoxybenzyl)palmitoylamide]
- Inhibitory effect on anandamide response ([5]; 1 nM compound, 0.5 μM AEA, at both pH values): > 50%
- IC50 ([5]; 0.5 μM AEA, acid pH (6.5)): 0.3 ± 0.01 nM
- Fold more potent at the lower pH ([5]; 0.5 μM AEA, pH 6.5 vs pH 7.4): 90 fold
- IC50 ([5]; 0.5 μM AEA, physiological pH (7.4)): 0.9 ± 0.1 nM
- IC50 ([5]; anandamide 0.25 mM (so in the source), acid pH): 0.5 ± 0.02 nM
- Pre-incubation time at which desensitizing effect reached a maximum ([4]; 2 nM Palvanil, 10 nM capsaicin stimulation): ~50 min
- IC50 ([4]; read-out: IC50, desensitization of TRPV1 to the effect of capsaicin, 10 nM capsaicin, compound given 5 min before): 0.81 ± 0.07 nM
- Capsaicin-induced wiping movements after Palvanil ([2]; Palvanil 10 μg/ml, 1 hour before capsaicin 10 μg/ml): 8.2±0.9 wiping movements
- Capsaicin-induced wiping movements after Palvanil ([2]; Palvanil 10 μg/ml, 3 hours before capsaicin 10 μg/ml): 7.0±0.9 wiping movements
- Capsaicin-induced wiping movements after Palvanil ([2]; Palvanil 30 μg/ml, 1 hour before capsaicin 10 μg/ml): 6.7±0.7 wiping movements
- Capsaicin-induced wiping movements after Palvanil ([2]; Palvanil 30 μg/ml, 3 hours before capsaicin 10 μg/ml): 6.0±0.8 wiping movements
